Measured values published in patent US20240358693A1, “METHODS OF TREATING PAIN” (Aisa Pharma, Inc., priority 2023, published 2024).

System: participants with SSc-RP
Assay: Frequency of weekly RP attacks (all attacks; primary efficacy endpoint)
Type: in vivo, human
Description: Percent change from baseline evaluation for frequency of weekly RP attacks were or will be used as the primary efficacy variable. The sponsor-developed participant-informed diary will be used to record data. Frequency of weekly RP attacks is defined as the total number of RP attacks divided by the number of days with available diary data within the last 7 days of each dosing period then multiplied by 7. Total number of RP attacks during the last 7 days of screening period divided by the number of days with available data then multiplied by 7 will be used as baseline for the analysis of all periods. The variable will be calculated as follows:
Percentage change={(weekly RP attacks for the last 7 days of each dosing period−Baseline weekly RP attacks)/Baseline weekly RP attacks}*100%.
Absolute change=weekly RP attacks for the last 7 days of each dosing period−Baseline weekly RP attacks
Percent change from baseline evaluation for frequency of weekly RP attacks was and will be the primary efficacy endpoint. Frequency of weekly RP attacks is defined as the total number of RP attacks divided by the number of days with available diary data within the last 7 days of each dosing period then multiplied by 7. Total number of RP attacks during the last 7 days of screening period divided by the number of days with available data then multiplied by 7 will be used as baseline for the analysis of all periods.
Percent change from baseline evaluation for frequency of weekly RP attacks were the primary efficacy endpoint. Data collected in the last 7 days of each dosing period were used for this analysis. Screening assessments were used as baseline for the analysis of all periods. No multiple comparison adjustment were used to control alpha for the multiple comparisons. Mixed effects model were used for analysis of the primary endpoint according to the crossover design. Other efficacy endpoints of continuous variables were analyzed using similar methodology. For nominal data, chi-square tests were applied. Generalized Estimating Equations method were used, as appropriate, for adjusting for potential confounding factors. In addition, the final analysis assessed whether in this study of severe Raynaud's disease participants, the minimally important difference, previously concluded of 14-15 points on the 100 point RCS scale had been achieved in the cilnidipine dose group. It also recorded the percentage of participants achieving a PASS (34 point difference from baseline on a 0-100 VAS) in each treatment group.

[1] = Tadalafil 5 mg, n=1, Excluding Outliers, by Baseline RCS, second subgroup, ITT Part A
[2] = all attacks, excluding outliers, cilnidipine 10 mg, tadalafil 5 mg daily
[3] = all attacks, by baseline RCS, second subgroup, cilnidipine 10 mg, tadalafil 5 mg daily
[4] = all attacks, cilnidipine 10 mg, tadalafil 5 mg daily

## CN1CC(=O)N2[C@H](c3ccc4c(c3)OCO4)c3[nH]c4ccccc4c3C[C@@H]2C1=O [Tadalafil, tadalafil]
[1]
  Weekly RP Attacks (All Attacks) Change from Baseline, Mean: 6.00
  Weekly RP Attacks (All Attacks) Change from Baseline, Median: 6.00
  Weekly RP Attacks (All Attacks) Percent Change from Baseline, Mean: 46.15%
  Weekly RP Attacks (All Attacks) Percent Change from Baseline, Median: 46.15%
  Weekly RP Attacks (All Attacks), Mean: 19.00
  Weekly RP Attacks (All Attacks), Median: 19.00
[2]
  Weekly RP Attacks Change from Baseline, Max: 6.0, 6.0
  Weekly RP Attacks Change from Baseline, Mean (SD): 6.00
  Weekly RP Attacks Change from Baseline, Median: 6.00
  Weekly RP Attacks Change from Baseline, Min: 6.0, 6.0
  Weekly RP Attacks Change from Baseline, Q1: 6.00, 6.00
  Weekly RP Attacks Change from Baseline, Q3: 6.00, 6.00
  Weekly RP Attacks Percent Change from Baseline, Max: 46.2, 46.2%
  Weekly RP Attacks Percent Change from Baseline, Mean (SD): 46.15%
  Weekly RP Attacks Percent Change from Baseline, Median: 46.15%
  Weekly RP Attacks Percent Change from Baseline, Min: 46.2, 46.2%
  Weekly RP Attacks Percent Change from Baseline, Q1: 46.15, 46.15%
  Weekly RP Attacks Percent Change from Baseline, Q3: 46.15, 46.15%
  Weekly RP Attacks, Max: 19.0, 19.0
  Weekly RP Attacks, Mean (SD): 19.00
  Weekly RP Attacks, Median: 19.00
  Weekly RP Attacks, Min: 19.0, 19.0
  Weekly RP Attacks, Q1: 19.00, 19.00
  Weekly RP Attacks, Q3: 19.00, 19.00
[3]
  Weekly RP Attacks Change from Baseline, Max: 6.0
  Weekly RP Attacks Change from Baseline, Mean: 3.00
  Weekly RP Attacks Change from Baseline, Median: 3.00
  Weekly RP Attacks Change from Baseline, Min: 0.0
  Weekly RP Attacks Change from Baseline, Q1: 0.00
  Weekly RP Attacks Change from Baseline, Q3: 6.00
  Weekly RP Attacks Percent Change from Baseline, Max: 46.2%
  Weekly RP Attacks Percent Change from Baseline, Mean: 23.08%
  Weekly RP Attacks Percent Change from Baseline, Median: 23.08%
  Weekly RP Attacks Percent Change from Baseline, Min: 0.0%
  Weekly RP Attacks Percent Change from Baseline, Q1: 0.00%
  Weekly RP Attacks Percent Change from Baseline, Q3: 46.15%
  Weekly RP Attacks, Max: 19.0
  Weekly RP Attacks, Mean: 13.00
  Weekly RP Attacks, Median: 13.00
  Weekly RP Attacks, Min: 7.0
  Weekly RP Attacks, Q1: 7.00
  Weekly RP Attacks, Q3: 19.00
[4]
  Weekly RP Attacks Change from Baseline, Max: 6.0
  Weekly RP Attacks Change from Baseline, Mean (SD): 3.00 (4.243)
  Weekly RP Attacks Change from Baseline, Median: 3.00
  Weekly RP Attacks Change from Baseline, Min: 0.0
  Weekly RP Attacks Change from Baseline, Q1: 0.00
  Weekly RP Attacks Change from Baseline, Q3: 6.00
  Weekly RP Attacks Percent Change from Baseline, Max: 46.2%
  Weekly RP Attacks Percent Change from Baseline, Mean (SD): 23.08 (32.636) Percent
  Weekly RP Attacks Percent Change from Baseline, Median: 23.08%
  Weekly RP Attacks Percent Change from Baseline, Min: 0.0%
  Weekly RP Attacks Percent Change from Baseline, Q1: 0.00%
  Weekly RP Attacks Percent Change from Baseline, Q3: 46.15%
  Weekly RP Attacks, Max: 19.0
  Weekly RP Attacks, Mean (SD): 13.00 (8.485)
  Weekly RP Attacks, Median: 13.00
  Weekly RP Attacks, Min: 7.0
  Weekly RP Attacks, Q1: 7.00
  Weekly RP Attacks, Q3: 19.00
